Measured values from patent publication US20260317340A1, “COMPOUNDS, COMPOSITIONS, AND METHODS OF TREATING DISORDERS” (Chengdu Anticancer Bioscience, Ltd., priority 2023, published 2026).
Like-named read-outs stand apart in the source and are kept apart here.

Experiments:
RPE-Neo or RPE-MYC cells = test: MTT assay of cellular proliferation (proliferative arrest); assay type: cell-based; conditions: read-out: Min. Effective conc. for Proliferative arrest (>50%)
Experimental: (§1) Human cancer cell lines were obtained from ATCC and cultured in DMEM (Gibco, Cleveland, TN, USA) supplemented with 5% fetal bovine serum (Gibco), penicillin (100 U/mL)-streptomycin (100 μg/mL) (Gibco, Cat. No. 15140-122), 2 mM L-glutamine (Gibco, 200 mM solution, Cat. No. 25030081), and 1 mM sodium pyruvate (Gibco, 100 mM solution, Cat. No. 11360070) at 37° C. in a humidified incubator that was maintained at 5% CO2.
Screening was conducted as described before (Li et al. 2019). Briefly, RPE-Neo or RPE-MYC or RPE-MYC expressing an EGFP-Histone 2B fusion protein were passaged as batches of 96-well plates, 18-24 hours before exposure to the chemical compounds of the present disclosure at concentrations from 20 nM to 20 μM. At 24, 48 or 72 hours after initiation of treatment, cells were analyzed for either an arrest in mitosis or a change in DNA content by GE IN-Cell Analyzer 2000. MTT assays of cellular proliferation were performed as previously described (Li et al. 2019). […]
(§2) As set forth in table 2 below, an values of greater than or equal to 1 nM and less than or equal to 1.0 μM is marked “A”; a value greater than 1.00 μM and less than or equal to 10.0 μM is marked “B”; a value greater than 10.0 μM and less than or equal to 30.0 μM is marked “C”; and a value greater than 30.0 μM and less than 1000 μM is marked “D.”

[1] = tested on: RPE-Neo or RPE-MYC or RPE-MYC expressing an EGFP-Histone 2B fusion protein; test: Phenotypic screening assay: arrest in mitosis, change in DNA content (polyploidy), cell death; assay type: cell-based; conditions: 20 nM to 20 μM, 24, 48 or 72 hours
Experimental: as §1
Screening was conducted as described before (Li et al. 2019). Briefly, RPE-Neo or RPE-MYC or RPE-MYC expressing an EGFP-Histone 2B fusion protein were passaged as batches of 96-well plates, 18-24 hours before exposure to the chemical compounds of the present disclosure at concentrations from 20 nM to 20 μM. At 24, 48 or 72 hours after initiation of treatment, cells were analyzed for either an arrest in mitosis or a change in DNA content by GE IN-Cell Analyzer 2000. MTT assays of cellular proliferation were performed as previously described (Li et al. 2019).
as §2

[2] = read-out: Min. Effective conc. for Along with Cell Death
[3] = ≥5%, read-out: Min. Effective conc. for Mitotic Arrest (≥5%)
[4] = ≥5%, read-out: Min. Effective conc. for Polyploidy (≥5%)

Measured: minimal effective concentration

COc1ccc(CN2C(=O)CC(c3ncc(C)o3)=Cc3ccc(-c4ccc(OC)nc4)cc32)cc1 [Compound 44, 1-(4-methoxybenzyl)-8-(6-methoxypyridin-3-yl)-4-(5-methyloxazol-2-yl)-1,3-dihydro-2H-benzo[b]azepin-2-one]
0.001 to 1 µM: RPE-Neo or RPE-MYC cells | [1]; [2] | [1]; [3] | [1]; [4]

COc1ccc(CN2C(=O)CC(c3ncc(C)o3)=Cc3ccc(-c4cncnc4)cc32)cc1 [Compound 46, 1-(4-methoxybenzyl)-4-(5-methyloxazol-2-yl)-8-(pyrimidin-5-yl)-1,3-dihydro-2H-benzo[b]azepin-2-one]
0.001 to 1 µM: RPE-Neo or RPE-MYC cells | [1]; [2] | [1]; [3] | [1]; [4]

COc1ccc(CN2C(=O)CC(c3ncc(C)o3)=Cc3ccc(-c4cnc(N)nc4)cc32)cc1 [Compound 47, 8-(2-aminopyrimidin-5-yl)-1-(4-methoxybenzyl)-4-(5-methyloxazol-2-yl)-1,3-dihydro-2H-benzo[b]azepin-2-one]
0.001 to 1 µM: RPE-Neo or RPE-MYC cells | [1]; [2] | [1]; [3] | [1]; [4]

COc1ccc(CN2C(=O)CC(c3ncc(C)o3)=Cc3ccc(-c4cnn(C5CCOC5)c4)cc32)cc1 (stereo not shown) [Compound 48, 1-(4-methoxybenzyl)-4-(5-methyloxazol-2-yl)-8-(1-(tetrahydrofuran-3-yl)-1H-pyrazol-4-yl)-1,3-dihydro-2H-benzo[b]azepin-2-one]
0.001 to 1 µM: RPE-Neo or RPE-MYC cells | [1]; [2] | [1]; [3] | [1]; [4]

COc1ccc(CN2C(=O)CC(c3ncc(C)o3)=Cc3ccc(-c4cnn(C5CCOCC5)c4)cc32)cc1 [Compound 49, 1-(4-methoxybenzyl)-4-(5-methyloxazol-2-yl)-8-(1-(tetrahydro-2H-pyran-4-yl)-1H-pyrazol-4-yl)-1,3-dihydro-2H-benzo[b]azepin-2-one]
0.001 to 1 µM: RPE-Neo or RPE-MYC cells | [1]; [2] | [1]; [3] | [1]; [4]

COc1ccc(CN2C(=O)CC(c3ncc(C)o3)=Cc3ccc(-c4cnn(CC(N)=O)c4)cc32)cc1 [Compound 50, 2-(4-(1-(4-methoxybenzyl)-4-(5-methyloxazol-2-yl)-2-oxo-2,3-dihydro-1H-benzo[b]azepin-8-yl)-1H-pyrazol-1-yl)acetamide]
0.001 to 1 µM: RPE-Neo or RPE-MYC cells | [1]; [2] | [1]; [3] | [1]; [4]

COc1ccc(CN2C(=O)CC(c3nnc(C4CC4)o3)=Cc3ccc(-c4cnn(CCN5CCOCC5)c4)cc32)cc1 [Compound 52, 4-(5-cyclopropyl-1,3,4-oxadiazol-2-yl)-1-(4-methoxybenzyl)-8-(1-(2-morpholinoethyl)-1H-pyrazol-4-yl)-1,3-dihydro-2H-benzo[b]azepin-2-one]
0.001 to 1 µM: RPE-Neo or RPE-MYC cells | [1]; [2] | [1]; [3] | [1]; [4]

COc1ccc(CN2C(=O)CC(c3ncc(C)o3)=Cc3ccc(-c4ccnc(N)c4)cc32)cc1 [Compound 55, 8-(2-Aminopyridin-4-yl)-1-(4-methoxybenzyl)-4-(5-methyloxazol-2-yl)-1,3-dihydro-2H-benzo[b]azepin-2-one]
0.001 to 1 µM: RPE-Neo or RPE-MYC cells | [1]; [2] | [1]; [3] | [1]; [4]

COc1ccc(CN2C(=O)CC(c3ncc(C)o3)=Cc3ccc(-c4cnn(C(C)(C)CO)c4)cc32)cc1 [Compound 56, 8-(1-(1-hydroxy-2-methylpropan-2-yl)-1H-pyrazol-4-yl)-1-(4-methoxybenzyl)-4-(5-methyloxazol-2-yl)-1,3-dihydro-2H-benzo[b]azepin-2-one]
0.001 to 1 µM: RPE-Neo or RPE-MYC cells | [1]; [2] | [1]; [3] | [1]; [4]

CCOC(C)n1cc(-c2ccc3c(c2)N(Cc2ccc(OC)cc2)C(=O)CC(c2ncc(C)o2)=C3)cn1 (stereo not shown) [Compound 58, 8-(1-(1-Ethoxyethyl)-1H-pyrazol-4-yl)-1-(4-methoxybenzyl)-4-(5-methyloxazol-2-yl)-1,3-dihydro-2H-benzo[b]azepin-2-one]
0.001 to 1 µM: RPE-Neo or RPE-MYC cells | [1]; [2] | [1]; [3] | [1]; [4]

COc1ccc(CN2C(=O)CC(c3ncc(C)o3)=Cc3ccc(-c4cnn(CCC#N)c4)cc32)cc1 [Compound 59, 3-(4-(1-(4-Methoxybenzyl)-4-(5-methyloxazol-2-yl)-2-oxo-2,3-dihydro-1H-benzo[b]azepin-8-yl)-1H-pyrazol-1-yl)propanenitrile]
0.001 to 1 µM: RPE-Neo or RPE-MYC cells | [1]; [2] | [1]; [3] | [1]; [4]

CNC(=O)c1cc(-c2ccc3c(c2)N(Cc2ccc(OC)cc2)C(=O)CC(c2ncc(C)o2)=C3)ccn1 [Compound 60, 4-(1-(4-Methoxybenzyl)-4-(5-methyloxazol-2-yl)-2-oxo-2,3-dihydro-1H-benzo[b]azepin-8-yl)-N-methylpicolinamide]
0.001 to 1 µM: RPE-Neo or RPE-MYC cells | [1]; [2] | [1]; [3] | [1]; [4]

COc1ccc(CN2C(=O)CC(c3ncc(C)o3)=Cc3ccc(-c4ccn(C)c(=O)c4)cc32)cc1 [Compound 62, 1-(4-Methoxybenzyl)-8-(1-methyl-2-oxo-1,2-dihydropyridin-4-yl)-4-(5-methyloxazol-2-yl)-1,3-dihydro-2H-benzo[b]azepin-2-one]
0.001 to 1 µM: RPE-Neo or RPE-MYC cells | [1]; [2] | [1]; [3] | [1]; [4]

COc1ccc(CN2C(=O)CC(c3ncc(C)o3)=Cc3ccc(-c4cnn(CCN5CCCC5)c4)cc32)cc1 [Compound 64, 1-(4-methoxybenzyl)-4-(5-methyloxazol-2-yl)-8-(1-(2-(pyrrolidin-1-yl)ethyl)-1H-pyrazol-4-yl)-1,3-dihydro-2H-benzo[b]azepin-2-one]
0.001 to 1 µM: RPE-Neo or RPE-MYC cells | [1]; [2] | [1]; [3] | [1]; [4]

COc1ccc(CN2C(=O)CC(c3ncc(C)o3)=Cc3ccc(-c4cnn(CCN(C)C)c4)cc32)cc1 [Compound 66, 8-(1-(2-(Dimethylamino)ethyl)-1H-pyrazol-4-yl)-1-(4-methoxybenzyl)-4-(5-methyloxazol-2-yl)-1,3-dihydro-2H-benzo[b]azepin-2-one]
0.001 to 1 µM: RPE-Neo or RPE-MYC cells | [1]; [2] | [1]; [3] | [1]; [4]

CNC(=O)Cn1cc(-c2ccc3c(c2)N(Cc2ccc(OC)cc2)C(=O)CC(c2ncc(C)o2)=C3)cn1 [Compound 67, 2-(4-(1-(4-Methoxybenzyl)-4-(5-methyloxazol-2-yl)-2-oxo-2,3-dihydro-1H-benzo[b]azepin-8-yl)-1H-pyrazol-1-yl)-N-methylacetamide]
0.001 to 1 µM: RPE-Neo or RPE-MYC cells | [1]; [2] | [1]; [3] | [1]; [4]
